Data from PubChem BioAssay (NCI).
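Exposure lasted 48 hours, with cells grown in 96-well plates and compounds tested at five concentrations. The concentration for full growth arrest is given as TGI.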

Key:
Assay in all cases: inhibition of tumour cell growth, NCI panel, 48 h
[1] = test system: SNB-75 CNS
[2] = test system: SN12C renal
[3] = test system: OVCAR-5 ovarian
[4] = test system: K-562 leukemia
[5] = test system: HCC-2998 colon
[6] = test system: SW-620 colon
[7] = test system: CAKI-1 renal
[8] = test system: OVCAR-8 ovarian
[9] = test system: T-47D breast
[10] = test system: DU-145 prostate
[11] = test system: NCI-H23 lung
[12] = test system: A498 renal
[13] = test system: M14 melanoma
[14] = test system: HOP-92 NSCLC
[15] = test system: MDA-MB-435
[16] = test system: ACHN renal
[17] = test system: SK-MEL-28 melanoma
[18] = test system: MDA-N
[19] = test system: PC-3 prostate
[20] = test system: TK-10 renal
[21] = test system: NCI/ADR-RES ovarian
[22] = test system: 786-0 renal
[23] = test system: HOP-62 NSCLC
[24] = test system: NCI-H460 lung
[25] = test system: IGROV1 ovarian
[26] = test system: NCI-H226 lung
[27] = test system: MDA-MB-231 breast
[28] = test system: SK-MEL-2 melanoma
[29] = test system: UACC-62 melanoma
[30] = test system: OVCAR-4 ovarian
[31] = test system: HCT-15 colon
[32] = test system: HS 578T breast
[33] = test system: RXF 393 renal
[34] = test system: EKVX NSCLC
[35] = test system: U251 CNS
[36] = test system: LOX IMVI melanoma
[37] = test system: SK-OV-3 ovarian
[38] = test system: A549 NSCLC
[39] = test system: SK-MEL-5 melanoma
[40] = test system: BT-549 breast
[41] = test system: MOLT-4 leukemia
[42] = test system: CCRF-CEM leukemia
[43] = test system: COLO 205 colon
[44] = test system: MCF7 breast
[45] = test system: RPMI-8226 leukemia
[46] = test system: HCT-116 colon
[47] = test system: HT29 colon
[48] = test system: MALME-3M melanoma
[49] = test system: KM12 colon
[50] = test system: SF-295 CNS
[51] = test system: UO-31 renal
[52] = test system: OVCAR-3 ovarian
[53] = test system: UACC-257 melanoma
[54] = test system: HL-60(TB) leukemia
[55] = test system: SF-268 CNS
[56] = test system: SNB-19 CNS
[57] = test system: NCI-H522 lung
[58] = test system: SF-539 CNS

O=C1/C(=C/c2ccc(O)c(CN3CCCCC3)c2)CCC/C1=C\c1ccc(O)c(CN2CCCCC2)c1
TGI [1]: 12.4 µM | TGI [2]: 59 µM | TGI [3]: > 100 µM | TGI [4]: 42.3 µM | TGI [5]: 20.6 µM | TGI [6]: 29.1 µM | TGI [7]: 34.5 µM | TGI [8]: 29.8 µM | TGI [9]: 35.8 µM | TGI [10]: 17.6 µM | TGI [11]: 20.2 µM | TGI [12]: 28.9 µM | TGI [13]: 44.5 µM | TGI [14]: 12.3 µM | TGI [15]: 18.2 µM | TGI [16]: 19.5 µM | TGI [17]: 31.3 µM | TGI [18]: 20.6 µM | TGI [19]: 44.6 µM | TGI [20]: 21.1 µM | TGI [21]: 9.82 µM | TGI [22]: 17.5 µM | TGI [23]: 26.3 µM | TGI [24]: 13.6 µM | TGI [25]: 29.4 µM | TGI [26]: 48.2 µM | TGI [27]: 17.4 µM | TGI [28]: 50.6 µM | TGI [29]: 38.2 µM | TGI [30]: 33.2 µM | TGI [31]: 29.5 µM | TGI [32]: 83.8 µM | TGI [33]: 15.5 µM | TGI [34]: 25.2 µM | TGI [35]: 20.5 µM | TGI [36]: 25.1 µM | TGI [37]: 22.4 µM | TGI [38]: 53.5 µM | TGI [39]: 27.1 µM | TGI [40]: 31.3 µM | TGI [41]: 27 µM | TGI [42]: 17.7 µM | TGI [43]: 10.4 µM | TGI [44]: 15.5 µM | TGI [45]: 35.8 µM | TGI [46]: 14.7 µM | TGI [47]: 3.7 µM | TGI [48]: 28.7 µM | TGI [49]: 14.8 µM | TGI [50]: 16.3 µM | TGI [51]: 22.5 µM | TGI [52]: > 100 µM | TGI [53]: 23.9 µM | TGI [54]: 11.5 µM | TGI [55]: 20.8 µM | TGI [56]: 17.7 µM

O=c1[nH]nc(Cc2ccccc2)n1/N=C/c1ccc(/C=N/n2c(Cc3ccccc3)n[nH]c2=O)cc1
TGI [2]: > 100 µM | TGI [3]: > 100 µM | TGI [4]: 50.5 µM | TGI [6]: > 100 µM | TGI [7]: > 100 µM | TGI [8]: > 100 µM | TGI [9]: > 100 µM | TGI [10]: > 100 µM | TGI [11]: > 100 µM | TGI [12]: > 100 µM | TGI [13]: > 100 µM | TGI [15]: > 100 µM | TGI [16]: > 100 µM | TGI [17]: > 100 µM | TGI [18]: > 100 µM | TGI [19]: > 100 µM | TGI [20]: > 100 µM | TGI [21]: > 100 µM | TGI [22]: > 100 µM | TGI [23]: > 100 µM | TGI [24]: > 100 µM | TGI [25]: > 100 µM | TGI [26]: > 100 µM | TGI [27]: > 100 µM | TGI [57]: > 100 µM | TGI [28]: > 100 µM | TGI [29]: > 100 µM | TGI [30]: > 100 µM | TGI [31]: > 100 µM | TGI [32]: > 100 µM | TGI [33]: > 100 µM | TGI [34]: > 100 µM | TGI [35]: > 100 µM | TGI [36]: > 100 µM | TGI [38]: > 100 µM | TGI [39]: > 100 µM | TGI [40]: > 100 µM | TGI [41]: 47 µM | TGI [42]: 50.7 µM | TGI [43]: > 100 µM | TGI [44]: > 100 µM | TGI [45]: > 100 µM | TGI [46]: > 100 µM | TGI [47]: > 100 µM | TGI [48]: > 100 µM | TGI [49]: > 100 µM | TGI [50]: > 100 µM | TGI [51]: > 100 µM | TGI [52]: > 100 µM | TGI [53]: > 100 µM | TGI [54]: > 100 µM | TGI [55]: > 100 µM | TGI [56]: > 100 µM

CCOC(=O)c1nnsc1NC(=O)NN
TGI [1]: > 100 µM | TGI [2]: > 100 µM | TGI [3]: > 100 µM | TGI [4]: > 100 µM | TGI [5]: > 100 µM | TGI [6]: > 100 µM | TGI [7]: > 100 µM | TGI [8]: > 100 µM | TGI [9]: > 100 µM | TGI [10]: > 100 µM | TGI [11]: > 100 µM | TGI [12]: > 100 µM | TGI [13]: > 100 µM | TGI [15]: > 100 µM | TGI [16]: > 100 µM | TGI [17]: > 100 µM | TGI [18]: > 100 µM | TGI [19]: > 100 µM | TGI [20]: > 100 µM | TGI [21]: > 100 µM | TGI [22]: > 100 µM | TGI [23]: > 100 µM | TGI [24]: > 100 µM | TGI [25]: > 100 µM | TGI [26]: > 100 µM | TGI [27]: > 100 µM | TGI [57]: > 100 µM | TGI [28]: > 100 µM | TGI [29]: > 100 µM | TGI [31]: > 100 µM | TGI [32]: > 100 µM | TGI [33]: > 100 µM | TGI [34]: > 100 µM | TGI [35]: > 100 µM | TGI [36]: > 100 µM | TGI [37]: > 100 µM | TGI [38]: > 100 µM | TGI [39]: > 100 µM | TGI [40]: > 100 µM | TGI [42]: > 100 µM | TGI [43]: > 100 µM | TGI [44]: > 100 µM | TGI [58]: > 100 µM | TGI [45]: > 100 µM | TGI [46]: > 100 µM | TGI [47]: > 100 µM | TGI [48]: > 100 µM | TGI [49]: > 100 µM | TGI [50]: > 100 µM | TGI [51]: > 100 µM | TGI [52]: > 100 µM | TGI [53]: > 100 µM | TGI [54]: > 100 µM | TGI [55]: > 100 µM | TGI [56]: > 100 µM
